Data set [1] concerns TRPC3/6/7 channels. The conditions noted are these: recent study (Montecinos-Oliva et al., 2014); cited from earlier work.
Data set [2] deals with hippocampal neurons.
Data set [3] relates to AβPPSwe/PSEN1ΔE9 (AβPP/PS1) transgenic mice. Particulars: previous studies; cited from earlier work.
Data set [4] deals with T1, TRPC6 (Homo sapiens, UniProt Q9Y210).
T1 construct: expressed in transfected cells; host or cells: HEK293
T1 sequence (Q9Y210 1-931): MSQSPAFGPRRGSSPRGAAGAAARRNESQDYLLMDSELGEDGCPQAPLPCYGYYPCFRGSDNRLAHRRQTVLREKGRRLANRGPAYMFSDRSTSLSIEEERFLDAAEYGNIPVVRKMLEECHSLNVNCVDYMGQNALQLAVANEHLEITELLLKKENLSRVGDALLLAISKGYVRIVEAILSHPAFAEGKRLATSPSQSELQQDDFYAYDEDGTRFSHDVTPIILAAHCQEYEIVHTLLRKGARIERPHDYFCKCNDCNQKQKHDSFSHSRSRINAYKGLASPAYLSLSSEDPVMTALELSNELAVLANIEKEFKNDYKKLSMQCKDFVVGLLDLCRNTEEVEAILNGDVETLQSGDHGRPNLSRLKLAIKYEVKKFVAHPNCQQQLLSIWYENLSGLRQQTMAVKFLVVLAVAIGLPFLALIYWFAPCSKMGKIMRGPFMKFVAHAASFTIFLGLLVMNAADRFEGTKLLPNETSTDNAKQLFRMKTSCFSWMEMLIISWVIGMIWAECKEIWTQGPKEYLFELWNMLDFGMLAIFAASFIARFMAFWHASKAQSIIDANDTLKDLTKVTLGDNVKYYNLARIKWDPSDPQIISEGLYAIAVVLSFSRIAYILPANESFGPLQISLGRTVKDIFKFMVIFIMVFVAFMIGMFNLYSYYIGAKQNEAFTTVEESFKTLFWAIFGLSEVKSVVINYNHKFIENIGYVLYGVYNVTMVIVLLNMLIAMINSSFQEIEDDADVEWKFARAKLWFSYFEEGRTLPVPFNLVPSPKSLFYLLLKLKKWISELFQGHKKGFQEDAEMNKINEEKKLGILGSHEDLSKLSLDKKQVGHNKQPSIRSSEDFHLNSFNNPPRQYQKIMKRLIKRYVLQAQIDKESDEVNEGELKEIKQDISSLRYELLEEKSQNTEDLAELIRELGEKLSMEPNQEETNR
Nature of the data set: Fura-2 Ca2+ imaging in TRPC6-transfected HEK293 cells. In kind it is cell-based. The conditions noted are these: for Ca2+ influx: 1 μM; for Ca2+ influx response: TRPC6-transfected cells, 100 μM.

In data set [5] the test system is spine nSOC channels. Nature of the data set: GCamp5.3 Ca2+ imaging of synaptic nSOC in cultured hippocampal neurons. The class given is cell-based, mouse.
Data set [6] relates to mushroom spines of hippocampal neurons. Nature of the data set: Dendritic spine analysis in primary hippocampal neural cultures. The class given is cell-based, mouse. The conditions noted are these: for mushroom spine loss: 30 nM for 16 hours. The protocol:
FIGS. 4A-E. NSN21778 and Hyperforin rescue synaptic nSOC and mushroom spine loss in AD hippocampal neurons. (FIG. 4A) Chemical structure of NSN21778 and Hyperforin. (FIG. 4B) Time-course of GCaMP5.3 fluorescence signal changes in the spines of wild-type, PS1KI and APPKI hippocampal neurons. The time of extracellular Ca^2+ re-addition is indicated by a black bar above the traces. 100 μM DHPG was added 50 sec prior to Ca^2+ re-addition. The results are shown for control (CON) neurons and for neurons pretreated with 300 nM NSN21778 (+NSN) or 300 nM Hyperforin (+Hyp) for 30 min as indicated. For each experimental group individual spine (grey) and average (red) fluorescence traces are shown. (FIG. 4C) The average nSOC spine peak amplitude is shown for each group of cells shown on panel B. The mean AF/Fo signals for each group and presented as mean±SE (n≥45 spines). ***, p <0.001. (FIG. 4D) Confocal images of wild-type, PS1KI and APPKI hippocampal neurons transfected with TD-Tomato and fixed at DIV15-16. The images are shown for control neurons (CON) and for neurons treated with 30 nM NSN21778 (+NSN) or 30 nM Hyperforin (+Hyp) for 16 hours prior to fixation. Scale bar is 10 μm. (FIG. 4E) The average fraction of mushroom spines for each group of cells shown on FIG. 4D is presented as mean±SE (n≥18 neurons). ***, p <0.001.
FIGS. 5A-E. TRPC6 is a molecular target for NSN21778 and Hyperforin. (FIGS. 5A-B) Time course of Fura-2 Ca^2+ signals is shown for HEK293 cells transfected with EGFP plasmid (GFP) or combination of EGFP and TRPC6 plasmids (TRPC6). Cells were incubated in ACSF media containing 2 mM Ca^2+. In experiments shown in FIG. 5B, cells were moved to modified ACSF media containing 0.1 mM Ca^2+ for 2 min and then returned to the media containing 2 mM Ca^2+ with addition of 100 μM OAG. The time of addition of 1 μM Hyperforin (Hyp) or NSN21778 (NSN) is indicated by red bars above the Fura-2 traces. For each experimental group individual spine (grey) and average (red) fluorescence traces are shown. (FIG. 5C) The average Ca^2+ influx peak is shown for experiments presented on FIGS. 5A-B as mean±SE (n≥81). (FIG. 5D) Confocal images of wild-type and PS1KI hippocampal neurons transfected with TD-Tomato and fixed at DIV15-16. The neurons were infected with lentiviruses encoding control RNAi (siCtrl), RNAi against TRPC6 (siT6) or RNAi against Orai2 (siO2). The images are shown for no drug treated neurons (CON) and for neurons treated with 30 nM NSN21778 (+NSN) or 30 nM Hyperforin (+Hyp) for 16 hours prior to fixation. Scale bar is 10 μm. No drug treated group of wild-type and PS1KI neurons is from the same experiment as shown on FIG. 2A-J. (FIG. 5E) The average fraction of mushroom spines for each group of cells shown on panel A is presented as mean±SE (n≥19 neurons). ***, p <0.001.
Dendritic Spine Analysis in Primary Hippocampal Neural Cultures. The hippocampal cultures of PS1KI, APPKI and WT mice were established from postnatal day 0-1 pups and maintained in culture as the inventors described previously [Zhang, 2010 #5733]. For assessment of synapse morphology, hippocampal cultures were transfected with TD-Tomato plasmid at DIV7 using the calcium phosphate method and fixed (4% formaldehyde, 4% sucrose in PBS, pH 7.4) at DIV15-16. A Z-stack of optical section was captured using 100× objective with a confocal microscope (Carl Zeiss Axiovert 100M with LSM510). 18-20 cultured neurons from three batches of cultures were used for quantitative analysis per genotype. Quantitative analysis for dendritic spines was performed by using NeuronStudio software package [Rodriguez, 2008 #6276]. To classify the shape of neuronal spines in culture, the inventors adapted an algorithm from published method [Rodriguez, 2008 #6276]. In classification of spine shapes the inventors used the following cutoff values: aspect ratio for thin spines (AR_thin(crio))=2.5, head to neck ratio (HNR(crit))=1.4, and head diameter (HD(crit))=0.5 μm. […]

Regarding tetrahydrohyperforin [IDN5706], the “Aβ-induced synaptic plasticity defects” value in data set [1] is recorded as “rescued”.
On to `CC(C)=CCC[C@]1(C)[C@@H](CC=C(C)C)C[C@@]2(CC=C(C)C)C(=O)[C@]1(C(=O)C(C)C)C(=O)C(CC=C(C)C)=C2O` [Hyperforin], for which the “toxicity, acute” value in data set [2] was “very large Ca^2 elevations and toxicity”. Also, the “toxicity, overnight” value in data set [2] is given as “neuronal toxicity in some batches”. Moreover, the “beta-amyloid neurotoxicity and spatial memory impairments” value in data set [3] was “able to prevent”. The “Ca2+ influx” value in data set [4] (TRPC6-transfected HEK293 cells, 2 mM Ca2+) was “activated Ca^2+ influx”; in data set [4] (control HEK293 cells transfected with EGFP plasmid) it was “not in control cells”. The “spine nSOC” value in data set [5] (PS1KI and APPKI hippocampal neurons, 300 nM applied prior to Ca2+ re-addition) is “rescued spine nSOC”; in data set [5] (wild-type spines, 300 nM), “no significant effect”. In data set [6] (PS1KI and APPKI neurons, 30 nM for 16 hr), the mushroom spines entry was “complete rescue”. In addition, the mushroom spine loss result in data set [6] (PS1KI cultures infected with control RNAi lentiviruses) was “rescued mushroom spine loss”; in data set [6] (PS1KI hippocampal neurons following knockdown of TRPC6 or Orai2) it was “failed to rescue mushroom spine loss”; in data set [6] (wild-type neurons with knockdown of TRPC6 or Orai2) it was “failed to rescue”. The “fraction of mushroom spines” value in data set [6] (wild-type neurons, 30 nM for 16 hr) was “no significant effect”.
For the compound `CCCCCCCC/C=C/CCCCCCCC(=O)OCC(CO)OC(C)=O` (stereo not shown) [OAG], the “Ca2+ influx response” value is listed as “highly variable responses” in data set [4] (standard recording conditions (data not shown)) and “more consistent responses” in data set [4] (stores partially depleted by 0.1 mM Ca2+ preincubation). Further, the “Ca2+ responses in spines” value in data set [5] (direct application to hippocampal neuronal cultures (data not shown)) was “induced Ca^2+ responses in just a few spines”.
